Experimental data from ChEMBL document CHEMBL1201862, “PubChem BioAssay data set” (2004).
Activity calls are given as the source filed them.

What was measured:
[1] = molecular target: T1, Tyrosine-protein phosphatase non-receptor type 7 (Homo sapiens, UniProt P35236); experiment: HTS HePTP Fluorescent Assay using OMFP substrate for In Vitro dose response studies. [Related pubchem assays (depositor defined):AID1059, AID1077, AID1784, AID2068, AID2085, AID435032, AID521]; assay type: functional
T1 sequence (P35236 whole entry): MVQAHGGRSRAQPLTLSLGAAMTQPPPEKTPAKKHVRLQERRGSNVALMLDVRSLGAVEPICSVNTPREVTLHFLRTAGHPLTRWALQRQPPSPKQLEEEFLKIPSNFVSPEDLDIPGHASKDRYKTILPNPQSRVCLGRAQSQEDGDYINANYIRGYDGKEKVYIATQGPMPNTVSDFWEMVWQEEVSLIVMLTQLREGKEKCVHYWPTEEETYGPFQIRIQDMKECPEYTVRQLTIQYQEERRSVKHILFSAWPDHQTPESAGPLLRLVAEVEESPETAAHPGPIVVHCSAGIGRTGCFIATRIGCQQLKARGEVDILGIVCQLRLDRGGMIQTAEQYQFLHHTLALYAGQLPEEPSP

[2] = molecular target: T2, Tyrosine-protein phosphatase non-receptor type 22 (Homo sapiens, UniProt Q9Y2R2); experiment: PTPN22 lymphoid phosphatase activity blockers – biochemical, fluorescence intensity, uHTS (AID 1779)
T2 sequence (Q9Y2R2 whole entry): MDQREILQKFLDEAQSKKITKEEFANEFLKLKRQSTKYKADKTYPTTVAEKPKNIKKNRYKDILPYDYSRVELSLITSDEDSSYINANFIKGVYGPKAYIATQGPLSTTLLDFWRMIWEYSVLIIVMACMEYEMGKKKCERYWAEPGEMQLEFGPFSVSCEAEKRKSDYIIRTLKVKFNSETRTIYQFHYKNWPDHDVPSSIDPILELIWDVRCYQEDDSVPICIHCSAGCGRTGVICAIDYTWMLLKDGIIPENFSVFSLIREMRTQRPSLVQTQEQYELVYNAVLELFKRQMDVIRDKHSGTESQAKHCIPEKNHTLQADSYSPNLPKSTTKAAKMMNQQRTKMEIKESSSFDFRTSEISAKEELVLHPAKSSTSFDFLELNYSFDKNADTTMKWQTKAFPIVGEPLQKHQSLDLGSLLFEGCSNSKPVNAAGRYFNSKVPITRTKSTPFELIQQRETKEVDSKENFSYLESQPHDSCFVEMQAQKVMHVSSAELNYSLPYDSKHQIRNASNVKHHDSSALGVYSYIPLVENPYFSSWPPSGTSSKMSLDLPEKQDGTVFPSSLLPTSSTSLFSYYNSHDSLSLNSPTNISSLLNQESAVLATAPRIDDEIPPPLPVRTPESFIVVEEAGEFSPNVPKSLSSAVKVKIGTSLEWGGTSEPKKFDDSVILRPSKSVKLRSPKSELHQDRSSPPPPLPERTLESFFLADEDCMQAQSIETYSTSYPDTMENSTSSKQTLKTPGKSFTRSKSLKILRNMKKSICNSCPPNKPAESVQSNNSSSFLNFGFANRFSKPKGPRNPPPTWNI

[3] = molecular target: T3, Dual specificity protein phosphatase 6 (Rattus norvegicus, UniProt Q64346); experiment: inhibition of rat DUSP6 enzyme activity – biochemical, in vitro, primary screen (AID 425)
T3 sequence (Q64346 whole entry): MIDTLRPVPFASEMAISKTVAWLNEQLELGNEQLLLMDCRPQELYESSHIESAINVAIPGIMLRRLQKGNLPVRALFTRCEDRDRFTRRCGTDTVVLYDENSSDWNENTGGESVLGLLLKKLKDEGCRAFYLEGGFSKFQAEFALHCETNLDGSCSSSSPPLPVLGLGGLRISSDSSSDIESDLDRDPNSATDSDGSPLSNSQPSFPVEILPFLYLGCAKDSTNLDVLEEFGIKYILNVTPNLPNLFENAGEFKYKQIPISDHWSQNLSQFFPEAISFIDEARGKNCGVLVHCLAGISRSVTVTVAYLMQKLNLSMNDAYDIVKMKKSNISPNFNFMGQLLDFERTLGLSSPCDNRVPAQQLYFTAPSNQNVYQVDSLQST

[4] = molecular target: Eukaryotic translation initiation factor 4E (Mus musculus, UniProt P63073); experiment: blockers of eIF4G binding by eIF4E – biochemical, TR-FRET, dose response (AID 855); assay type: functional;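 also: potency for disrupting eIF4E binding to eIF4GI seen as loss of FRET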
[5] = molecular target: T4, Small ubiquitin-related modifier 1 (Homo sapiens, UniProt P63165); experiment: SUMO1 protein interaction blockers, potency – biochemical, fluorescence polarization, uHTS hits, dose response (AID 624382); assay type: functional; settings: read-out: IC50_Mean
[6] = molecular target: T5, Probable nicotinate-nucleotide adenylyltransferase (Staphylococcus aureus (strain N315), UniProt P65502); assay type: functional, Staphylococcus aureus subsp. aureus N315;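 as to IC50 Mean: confirmatory dose-response retesting of NadD inhibitor hits first found in an ultra-high-throughput screen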
[7] = molecular target: T5, Probable nicotinate-nucleotide adenylyltransferase; assay type: functional, Staphylococcus aureus subsp. aureus N315; settings: read-out: IC50_Mean
[8] = molecular target: T4, Small ubiquitin-related modifier 1; experiment: SUMO1 protein-protein binding blockers, potency – biochemical, FRET, dose response (AID 624383); assay type: functional; settings: read-out: IC50_Mean
[9] = molecular target: T6, Beta-galactosidase (Escherichia coli, UniProt Q8VNN2); experiment: PubChem AID 485352; assay type: functional
[10] = molecular target: T6, Beta-galactosidase; assay type: functional
[11] = molecular target: Kappa-type opioid receptor (Homo sapiens, UniProt P41145); assay type: functional
[12] = HEK-293T viability loss, compound-treated – cell-based, uHTS hits, cytotoxicity control for B/T-cell NF-kB inhibitor project, dose response (AID 489019); assay type: functional;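 also: IC50 reflects cytotoxicity as loss of cell viability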
[13] = test system: BJ; experiment: growth inhibition of engineered Ras-driven BJ cells – cell-based, alamar blue fluorescence, cherrypicked samples, dose response (AID 2631); assay type: functional; settings: Homo sapiens;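 also: confirmatory dose-response assay in RAS-dependent BJ fibroblasts engineered with TERT, LT and ST, with cytotoxicity read by fluorescence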
[14] = test system: INS1; experiment: INS-1E survival protection against cytokine death – cell-based, luminescence, retest, dose response (AID 449756); assay type: functional; settings: Rattus norvegicus;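 also: cell death triggered by IL-1 beta plus TNF-alpha plus IFN-gamma mixture; protective hits raise ATP signal compared with cytokine alone wells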
[15] = reduction of Shn3 3'UTR-driven luciferase in osteoblasts – cell-based, Clone20 osteoblasts, firefly luciferase, cherry-picked, dose response (AID 624132); assay type: functional;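 also: firefly luciferase luminescence from reporter carrying the Shn3 3'UTR in osteoblasts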
[16] = molecular target: Genome polyprotein (dengue virus type 2, UniProt P29990); experiment: flavivirus cap methylation enzyme inhibition – biochemical, confirmation dose response, primary screen (AID 588689); assay type: functional
[17] = molecular target: T7, Caspase-6 (Homo sapiens, UniProt P55212); experiment: inhibition of CASP6 peptide cleavage – biochemical, VEID-R110 fluorescence, cherry-pick, dose response (AID 720632)
T7 sequence (P55212 whole entry): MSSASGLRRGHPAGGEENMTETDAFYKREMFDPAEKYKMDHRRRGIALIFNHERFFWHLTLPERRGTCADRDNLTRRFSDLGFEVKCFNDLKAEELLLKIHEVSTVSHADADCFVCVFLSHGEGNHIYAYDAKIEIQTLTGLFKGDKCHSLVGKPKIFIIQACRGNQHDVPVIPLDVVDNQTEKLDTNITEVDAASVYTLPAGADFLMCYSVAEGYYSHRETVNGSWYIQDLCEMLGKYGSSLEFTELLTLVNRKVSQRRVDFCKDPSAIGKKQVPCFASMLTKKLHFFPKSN

T4 sequence (P63165 whole entry): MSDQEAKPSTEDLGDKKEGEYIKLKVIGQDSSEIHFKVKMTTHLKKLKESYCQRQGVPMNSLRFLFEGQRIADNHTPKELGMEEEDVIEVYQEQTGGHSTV
T5 sequence (P65502 whole entry): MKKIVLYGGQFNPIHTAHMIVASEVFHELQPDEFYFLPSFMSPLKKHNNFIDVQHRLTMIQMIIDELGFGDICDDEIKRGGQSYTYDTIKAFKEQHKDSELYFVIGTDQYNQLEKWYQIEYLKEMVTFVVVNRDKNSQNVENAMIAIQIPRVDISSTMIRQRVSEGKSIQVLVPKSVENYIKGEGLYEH
T6 sequence (Q8VNN2 whole entry): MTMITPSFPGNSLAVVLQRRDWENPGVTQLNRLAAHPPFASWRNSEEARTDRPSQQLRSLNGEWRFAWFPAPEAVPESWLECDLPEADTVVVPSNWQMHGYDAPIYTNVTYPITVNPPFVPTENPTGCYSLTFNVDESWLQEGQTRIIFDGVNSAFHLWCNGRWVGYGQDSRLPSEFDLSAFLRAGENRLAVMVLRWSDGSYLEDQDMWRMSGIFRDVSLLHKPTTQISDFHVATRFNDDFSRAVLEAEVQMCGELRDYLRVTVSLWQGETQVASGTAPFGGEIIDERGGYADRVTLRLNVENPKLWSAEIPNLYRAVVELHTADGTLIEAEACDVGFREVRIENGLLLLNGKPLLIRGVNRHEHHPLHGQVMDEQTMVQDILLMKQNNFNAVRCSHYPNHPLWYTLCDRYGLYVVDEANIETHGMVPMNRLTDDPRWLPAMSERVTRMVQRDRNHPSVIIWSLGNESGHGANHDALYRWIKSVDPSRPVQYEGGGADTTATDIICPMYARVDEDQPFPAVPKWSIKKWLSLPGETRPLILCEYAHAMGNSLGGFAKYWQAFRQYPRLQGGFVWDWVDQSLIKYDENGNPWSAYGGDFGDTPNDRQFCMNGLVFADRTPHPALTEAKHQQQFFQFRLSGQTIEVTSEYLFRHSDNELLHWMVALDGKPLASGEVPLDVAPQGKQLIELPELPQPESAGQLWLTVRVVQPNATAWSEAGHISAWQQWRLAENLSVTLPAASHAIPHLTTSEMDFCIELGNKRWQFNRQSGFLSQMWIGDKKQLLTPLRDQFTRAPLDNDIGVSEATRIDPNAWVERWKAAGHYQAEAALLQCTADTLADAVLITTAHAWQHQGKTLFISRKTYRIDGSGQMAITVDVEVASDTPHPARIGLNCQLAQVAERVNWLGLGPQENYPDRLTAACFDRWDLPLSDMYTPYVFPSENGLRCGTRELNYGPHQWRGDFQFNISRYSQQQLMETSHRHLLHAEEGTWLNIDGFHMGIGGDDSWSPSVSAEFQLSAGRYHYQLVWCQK
Chain of Kappa-type opioid receptor (P41145 whole entry): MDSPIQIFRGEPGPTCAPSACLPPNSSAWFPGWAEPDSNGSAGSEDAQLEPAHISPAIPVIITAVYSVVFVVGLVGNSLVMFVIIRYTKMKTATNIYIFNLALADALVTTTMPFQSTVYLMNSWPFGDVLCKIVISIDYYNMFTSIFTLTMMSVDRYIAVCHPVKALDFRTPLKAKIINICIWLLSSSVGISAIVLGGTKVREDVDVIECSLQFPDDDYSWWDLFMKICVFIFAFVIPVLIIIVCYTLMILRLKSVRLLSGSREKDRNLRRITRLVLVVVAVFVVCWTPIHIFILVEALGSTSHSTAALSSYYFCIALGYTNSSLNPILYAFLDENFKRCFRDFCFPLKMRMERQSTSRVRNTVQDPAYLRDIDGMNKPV
Chain of Eukaryotic translation initiation factor 4E (P63073 whole entry): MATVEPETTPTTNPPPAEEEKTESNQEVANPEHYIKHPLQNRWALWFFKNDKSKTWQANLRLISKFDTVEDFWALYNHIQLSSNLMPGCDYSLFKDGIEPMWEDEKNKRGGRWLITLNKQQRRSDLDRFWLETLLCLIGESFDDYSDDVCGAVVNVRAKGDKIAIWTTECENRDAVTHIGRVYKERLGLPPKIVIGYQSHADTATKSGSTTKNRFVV
Chain of Genome polyprotein (P29990 2492-3391 limits assumed): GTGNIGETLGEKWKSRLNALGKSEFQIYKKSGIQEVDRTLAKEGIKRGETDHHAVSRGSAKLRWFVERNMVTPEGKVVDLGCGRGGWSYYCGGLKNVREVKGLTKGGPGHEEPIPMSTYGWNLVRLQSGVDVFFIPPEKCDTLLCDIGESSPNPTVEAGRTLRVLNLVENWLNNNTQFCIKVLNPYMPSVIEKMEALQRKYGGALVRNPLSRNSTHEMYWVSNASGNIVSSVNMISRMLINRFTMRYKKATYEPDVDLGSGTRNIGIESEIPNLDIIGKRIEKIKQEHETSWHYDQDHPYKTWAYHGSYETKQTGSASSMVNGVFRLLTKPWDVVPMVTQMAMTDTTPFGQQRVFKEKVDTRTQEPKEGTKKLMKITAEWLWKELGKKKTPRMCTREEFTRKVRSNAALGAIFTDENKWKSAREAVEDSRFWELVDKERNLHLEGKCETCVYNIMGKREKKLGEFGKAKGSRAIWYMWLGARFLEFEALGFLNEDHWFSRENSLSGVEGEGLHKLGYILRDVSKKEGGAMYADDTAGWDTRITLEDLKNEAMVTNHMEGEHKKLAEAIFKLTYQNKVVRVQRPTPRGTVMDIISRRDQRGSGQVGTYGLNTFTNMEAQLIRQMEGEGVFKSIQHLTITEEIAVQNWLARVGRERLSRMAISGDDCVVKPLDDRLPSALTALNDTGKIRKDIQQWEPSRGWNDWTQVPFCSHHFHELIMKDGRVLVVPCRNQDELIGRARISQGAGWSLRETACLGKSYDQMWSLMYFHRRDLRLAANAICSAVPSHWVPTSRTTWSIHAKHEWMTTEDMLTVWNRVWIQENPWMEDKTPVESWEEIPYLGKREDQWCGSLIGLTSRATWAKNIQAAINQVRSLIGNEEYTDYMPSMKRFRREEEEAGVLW

## O=C(O)c1cccc(-n2cccc2/C=C2/NC(=O)N(c3ccc(Cl)cc3)C2=O)c1
[1]
  IC50: 6.06 µM (active)
[2]
  IC50: 5.47 µM (active)
[3]
  IC50: 3.28 µM (active)
[4]
  IC50: 4.43 µM (active)
[5]
  IC50: 21.3 µM (inactive)
[6]
  IC50: 11.1 µM (active)
[7]
  IC50: 27.1 µM (active)
[8]
  IC50: 17.4 µM (active)

## C=C1C(=O)O[C@@H]2C[C@@H](C)[C@@H]3C=CC(=O)[C@@]3(C)[C@@H](OC(=O)CC(=O)O[C@H]3[C@@H]4C(=C)C(=O)O[C@@H]4C[C@@H](C)[C@@H]4C=CC(=O)[C@]43C)[C@H]12
[9]
  EC50: > 40 µM (inactive)
[10]
  EC50: > 31.5 µM (inactive)
[11]
  IC50: 9.14 µM
[12]
  IC50: > 80 µM (inactive)
[13]
  EC50: 0.0525 µM (active)
[14]
  AC50: 0.312 µM (active)
[15]
  AC50: 0.292 µM (active)

## O=S(=O)(O)c1cc(Cl)cc(N=Nc2ccc(O)cc2O)c1O
[16]
  IC50: 58.3 µM (active)
[17]
  AC50: 2.44 µM (active)
